The values below come from ChEMBL document CHEMBL5390242, “Design, Synthesis, and Antitumor Efficacy of Substituted 2-Amino[1,2,4]triazolopyrimidines and Related Heterocycles as Dual Inhibitors for Microtubule Polymerization and Janus Kinase 2” (J Med Chem, 2023).

The source made the active and inactive calls. No cut-off for these calls is given here.

Assay [1] deals with HeLa. Nature of the assay: Antiproliferative activity against human HeLa cells assessed as cell growth inhibition incubated for 48 hrs by MTT assay. It counts as functional, cell-based. A general note: Tetrazolium dyes change colour on reduction, which living cells bring about.
Assay [2] concerns KP-4. In words: Antiproliferative activity against human KP-4 cells assessed as cell growth inhibition incubated for 48 hrs by MTT assay. It counts as functional, cell-based. Particulars: KP-4, 48 h.
In assay [3] the test system is A549. In words: Antiproliferative activity against human A549 cells assessed as cell growth inhibition incubated for 48 hrs by MTT assay. It counts as functional, cell-based. Particulars: A549, 48 h.
Assay [4] has as its target T1, Tyrosine-protein kinase JAK2 (Homo sapiens, UniProt O60674). Nature of the assay: Inhibition of JAK2 (unknown origin) using Poly-(Glu,Tyr 4:1) peptide as substrate at 1 uM in presence of ATP by ADP-Glo reagent based assay relative to control. A general note: ADP-Glo turns the ADP formed in a reaction into a luminescent signal.
Assay [5] relates to BXPC-3. In words: Antiproliferative activity against human BXPC-3 cells assessed as cell growth inhibition incubated for 48 hrs by MTT assay. It counts as functional, cell-based. Particulars: BXPC-3, 48 h.
Assay [6] concerns the target T1, Tyrosine-protein kinase JAK2. In words: Inhibition of JAK2 (unknown origin) using Poly-(Glu,Tyr 4:1) peptide as substrate in presence of ATP by ADP-Glo reagent based assay.
For assay [7], the target named is Tubulin (Sus scrofa, UniProt P02554+P02550). Nature of the assay: Inhibition of porcine brain tubulin polymerization measured for 30 mins in presence of GTP by microplate reader assay. In kind it is tissue-based.
Assay [8] relates to MCF7. Nature of the assay: cells. Particulars: Homo sapiens, MCF7, 48 h.
Description: Antiproliferative activity against human MCF7 cells assessed as cell growth inhibition incubated for 48 hrs by MTT assay
Assay [9] deals with HCT-8. In words: Antiproliferative activity against human HCT-8 cells assessed as cell growth inhibition incubated for 48 hrs by MTT assay. In kind it is functional, cell-based. Particulars: HCT-8, 48 h.
The nature of assay [10]: Antiproliferative activity against human HCT-8/VCR cells assessed as cell growth inhibition incubated for 48 hrs by MTT assay. It counts as functional, cell-based.
The nature of assay [11]: Resistance index, ratio of IC50 for antiproliferative activity against human HCT-8/VCR cells to IC50 for antiproliferative activity against human HCT-8 cells. It counts as functional.
The target of assay [12] is Tubulin beta (Homo sapiens) (UniProt P68371+Q9H4B7+Q13509+P04350+Q3ZCM7+P07437+Q13885+Q9BVA1+Q9BUF5+A6NNZ2). In words: Binding affinity to beta-tubulin colchicine binding site in human A549 cells assessed as inhibition of EBI-beta-tubulin adduct band formation at 5 to 25 uM preincubated for 2 hrs followed by EBI addition measured after 1.5 hrs by EBI competition based Western blotting analysis. It counts as cell-based. Particulars: dose 5-25 µM. A general note: In western blotting, separated proteins are transferred to a membrane and probed.

The test system of assay [13] is A2780/Taxol. Nature of the assay: Antiproliferative activity against human A2780T cells assessed as cell growth inhibition incubated for 48 hrs by MTT assay. It counts as functional, cell-based.

T1 sequence (O60674 whole entry): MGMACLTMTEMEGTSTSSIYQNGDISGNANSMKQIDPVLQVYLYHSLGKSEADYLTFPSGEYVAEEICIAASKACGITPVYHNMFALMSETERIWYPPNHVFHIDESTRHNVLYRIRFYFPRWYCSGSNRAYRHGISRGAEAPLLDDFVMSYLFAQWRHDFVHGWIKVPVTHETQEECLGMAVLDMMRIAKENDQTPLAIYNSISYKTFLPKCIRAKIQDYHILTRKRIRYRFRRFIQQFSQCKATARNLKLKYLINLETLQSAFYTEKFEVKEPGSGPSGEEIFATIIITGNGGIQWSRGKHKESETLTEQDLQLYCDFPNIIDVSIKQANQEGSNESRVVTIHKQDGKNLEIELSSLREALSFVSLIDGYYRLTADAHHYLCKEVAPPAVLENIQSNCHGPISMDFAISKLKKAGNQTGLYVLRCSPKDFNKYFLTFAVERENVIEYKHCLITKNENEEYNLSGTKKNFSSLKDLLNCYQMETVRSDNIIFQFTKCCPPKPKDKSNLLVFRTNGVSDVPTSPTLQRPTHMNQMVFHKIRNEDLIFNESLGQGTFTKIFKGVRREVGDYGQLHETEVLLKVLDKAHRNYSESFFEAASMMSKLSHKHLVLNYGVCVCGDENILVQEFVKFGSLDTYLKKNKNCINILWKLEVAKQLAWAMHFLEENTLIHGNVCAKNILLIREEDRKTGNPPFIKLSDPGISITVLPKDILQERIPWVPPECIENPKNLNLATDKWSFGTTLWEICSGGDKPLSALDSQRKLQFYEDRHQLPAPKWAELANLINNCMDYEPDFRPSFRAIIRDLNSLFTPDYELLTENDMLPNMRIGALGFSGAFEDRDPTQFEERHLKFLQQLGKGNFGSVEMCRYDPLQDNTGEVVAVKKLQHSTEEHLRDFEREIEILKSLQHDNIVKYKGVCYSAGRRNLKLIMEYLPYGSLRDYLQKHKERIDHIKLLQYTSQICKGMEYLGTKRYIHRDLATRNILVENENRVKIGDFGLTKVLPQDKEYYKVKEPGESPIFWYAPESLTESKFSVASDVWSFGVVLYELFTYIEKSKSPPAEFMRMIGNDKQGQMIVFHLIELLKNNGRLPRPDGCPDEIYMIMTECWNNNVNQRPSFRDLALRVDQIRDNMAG

Take `COc1cc(-c2nccc3nc(Nc4ccc5c(ccn5C)c4)nn23)cc(OC)c1OC`: the IC50 came to 202 nM in [1]; 938 nM in [2]; 92 nM in [3]; 40 nM in assay [5]; 544 nM in assay [6]; 15300 nM in [7]. The same molecule came in with an IC50 in assay [8] of 64 nM. Besides, the inhibition in assay [4] worked out at 77%.

Take `COc1cc(-c2nccc3nc(Nc4ccc5cc[nH]c5c4)nn23)cc(OC)c1OC`: the IC50 came to 209 nM in assay [1]; 610 nM in assay [2]; 85 nM in assay [3]; 107 nM in [5]; 256 nM in assay [8]. For the same molecule, in assay [4], the inhibition was determined as 29%.

On to `COc1cc(-c2nccc3nc(Nc4ccc(C)c(O)c4)nn23)cc(OC)c1OC`, for which the IC50 was determined as 312 nM in [1]; 2180 nM in assay [2]; 354 nM in assay [3]; 355 nM in assay [5]; 326 nM in assay [8]. Moreover, the inhibition in [4] stood at 46%.

On to `COc1cc(-c2ccnc3nc(Nc4cccc5[nH]ccc45)nn23)cc(OC)c1OC`, for which the IC50 was determined as 166 nM in [1]; 70 nM in [2]; 85 nM in assay [3]; 23 nM in assay [5]; 35 nM in assay [8].

For `COc1cc(-c2nccc3nc(Nc4ccc5c(c4)c4ccccc4n5C)nn23)cc(OC)c1OC`, the IC50 in assay [1] is > 10000 nM; in assay [2], 2120 nM; in assay [3] it was 996 nM; in [5], > 10000 nM; in assay [8], > 10000 nM.

With `COc1cc(-c2cncc3nc(Nc4cccc5[nH]ccc45)nn23)cc(OC)c1OC`, the IC50 in assay [1] was 41 nM; in assay [2] it was 431 nM; in assay [3], 2530 nM; in assay [5], 88 nM; in assay [8], 26 nM.

Consider `COc1ccc(Nc2nc3ccnc(-c4cc(OC)c(OC)c(OC)c4)n3n2)cc1N`, for which the IC50 stood at 117 nM in assay [1]; 1800 nM in assay [2]; 201 nM in assay [3]; 176 nM in [5]; 326 nM in assay [6]; 4200 nM in assay [7]. The molecule also displayed an IC50 in assay [8] of 189 nM. The inhibition in [4] was determined as 86%.

Take `COc1ccc(-c2ccc3nnc(Nc4cc(OC)c(OC)c(OC)c4)n3c2)cc1O`: the IC50 in assay [1] was 11300 nM; in [2], 4670 nM; in assay [3] it was 3940 nM; in [5], 5960 nM; in assay [8] it was 3500 nM.

`COc1cc(-c2nccc3nc(Nc4cccc5c4ccn5C)nn23)cc(OC)c1OC`: the IC50 in assay [1] turned out to be 29 nM; in [2], 40 nM; in [3] it was 13 nM; in [5], 16 nM; in assay [6], 705 nM; in assay [7] it was 1600 nM. The molecule further registered an IC50 in assay [8] of 46 nM. Further, in assay [4], the inhibition is 56%.

Consider `COc1cc(Nc2nc3ccnc(-c4cccc5[nH]ccc45)n3n2)cc(OC)c1OC`, for which the IC50 stood at 982 nM in assay [1]; 714 nM in assay [2]; 1860 nM in [3]; 692 nM in [5]; 267 nM in [8].

As to `COc1cc(-c2cccc3nc(Nc4cccc5[nH]ccc45)nn23)cc(OC)c1OC`, the IC50 in [1] worked out at 247 nM; in [2] it was 259 nM; in assay [3], 64 nM; in assay [5], 29 nM; in assay [8], 72 nM.

Regarding `COc1cc(-c2nccc3nc(Nc4ccc5ccn(C)c5c4)nn23)cc(OC)c1OC`, the IC50 is 2170 nM in [1]; 7160 nM in assay [2]; > 10000 nM in [3]; 630 nM in assay [5]; 280 nM in [8]. In addition, the inhibition in [4] was 26%.

For `COc1cc(-c2nccc3nc(Nc4ccc5c(c4)[nH]c4ccccc45)nn23)cc(OC)c1OC`, the IC50 in assay [1], in assay [2], in assay [3], in [5] and in assay [8] was > 10000 nM each time.

On to `COc1cc(-c2nccc3nc(Nc4cccc5ccn(C)c45)nn23)cc(OC)c1OC`, for which the IC50 in assay [1], in [2], in assay [3], in [5] and in assay [8] was > 10000 nM in each case.

As for `COCOc1cc(Nc2nc3ccnc(-c4cc(OC)c(OC)c(OC)c4)n3n2)ccc1C`, the IC50 in [1], in assay [2], in assay [3], in [5] and in assay [8] was > 10000 nM throughout.

Consider `COc1cc(-c2cncc3nc(Nc4cccc5c4ccn5C)nn23)cc(OC)c1OC`, for which the IC50 in assay [1] amounted to 59 nM; in assay [2], 106 nM; in assay [3], 7150 nM; in [5], 38 nM; in assay [8], 25 nM.

For the molecule `COc1cc(-c2nccc3nc(Nc4cccc5[nH]c6ccccc6c45)nn23)cc(OC)c1OC`, the IC50 in [1], in assay [2], in assay [3], in assay [5] and in [8] was > 10000 nM in each case.

As to `COc1cc(-c2ccnc3nc(Nc4cccc5c4ccn5C)nn23)cc(OC)c1OC`, the IC50 came to 80 nM in [1]; 36 nM in assay [2]; 13 nM in assay [3]; 18 nM in [5]; 26 nM in [8].

On to `COc1cc(-c2nccc3nc(Nc4cccc5cc[nH]c45)nn23)cc(OC)c1OC`, for which the IC50 in [1] is 2580 nM; in [2] it was 1200 nM; in assay [3] it was 257 nM; in assay [5], 2410 nM; in [8], 325 nM. For the same molecule, the inhibition in [4] is 1.7%.

With `COc1ccc(Nc2nc3ccnc(-c4cc(OC)c(OC)c(OC)c4)n3n2)cc1[N+](=O)[O-]`, the IC50 stood at 593 nM in assay [1]; 5460 nM in assay [2]; 2400 nM in assay [3]; 1420 nM in assay [5]; 951 nM in assay [8].

For `COc1cc(-c2nccc3nc(Nc4ccc5c6ccccc6n(C)c5c4)nn23)cc(OC)c1OC`, the IC50 in assay [1], in [2], in assay [3], in assay [5] and in assay [8] was > 10000 nM throughout.

`CC[C@]1(O)C[C@H]2CN(CCc3c([nH]c4ccccc34)[C@@](C(=O)OC)(c3cc4c(cc3OC)N(C=O)[C@H]3[C@@](O)(C(=O)OC)[C@H](OC(C)=O)[C@]5(CC)C=CCN6CC[C@]43[C@@H]65)C2)C1` [VINCRISTINE]: the IC50 came out at 173 nM in assay [9] and 2920 nM in [10]. Moreover, in assay [11], the “Ratio IC50” value is reported as 16.9. Moreover, in assay [12], the outcome was inactive.

In the case of `COCOc1cc(Nc2nc3ccnc(-c4cc(OC)c(OC)c(OC)c4)n3n2)ccc1OC`, the IC50 is > 10000 nM in assay [1]; > 10000 nM in [2]; > 10000 nM in assay [3]; 3960 nM in assay [5]; 1500 nM in assay [8].

Consider `COc1cc(-c2nccc3nc(Nc4ccc5[nH]ccc5c4)nn23)cc(OC)c1OC`, for which the IC50 is 131 nM in assay [1]; 352 nM in assay [2]; 81 nM in [3]; 20 nM in assay [5]; 90 nM in assay [6]; 8800 nM in assay [7]. In assay [8], this molecule came in with an IC50 of 36 nM. For the same molecule, in [4], the inhibition was 96%.

On to `CC(=O)O[C@H]1C(=O)[C@@]2(C)[C@H]([C@H](OC(=O)c3ccccc3)[C@]3(O)C[C@H](OC(=O)[C@H](O)[C@@H](NC(=O)c4ccccc4)c4ccccc4)C(C)=C1C3(C)C)[C@]1(OC(C)=O)CO[C@@H]1C[C@@H]2O` [PACLITAXEL], for which the IC50 amounted to 7 nM in [1]; 7 nM in assay [2]; 11 nM in [5]; 319 nM in [13]; 7 nM in assay [8].

As to `COc1ccc(Nc2nc3ccnc(-c4cc(OC)c(OC)c(OC)c4)n3n2)cc1O`, the IC50 came out at 1060 nM in assay [1]; 3150 nM in assay [2]; 502 nM in [3]; 205 nM in assay [5]; 363 nM in assay [8]. In [4], the inhibition worked out at 46%.

For orientation: IC50 means the concentration needed to halve the response being measured. What is called inhibition is the drop in the measured response relative to a control, in per cent.
